Measured values reported in PubChem BioAssay AID288 (DTP/NCI, 2004).
Values joined by “and” are separate entries in the source; they are usually repeats but may differ in a detail not shown here. Identical values can stand only once. Records with an inconclusive call do not appear.

System: BDF1 mice, M5076 sarcoma s.c., survival/tumor T/C
Assay: NCI In Vivo Anticancer Drug Screen. Data for tumor model Sarcoma M5076 (subcutaneous) in B6D2F1 (BDF1) mice
Description: The antitumor activity of compounds was measured in mice bearing transplantable tumors. Survival or tumor size were measured and the results are expressed as the measurement made in the treated group (T) divided by the measurement made in the vehicle treated control group (C). The tumor model used in this assay is Sarcoma M5076 (subcutaneous) in B6D2F1 (BDF1) mice

[1] = endpoint: median survival time, dose: 50.0 mg/kg/injection, schedule: Q01DX009 (ip), vehicle: saline with Tween-80, higher = longer survival
[2] = endpoint: median survival time, dose: 100.0 mg/kg/injection, schedule: Q01DX009 (ip), vehicle: saline with Tween-80, higher = longer survival
[3] = endpoint: median survival time, dose: 200.0 mg/kg/injection, schedule: Q01DX009 (ip), vehicle: saline with Tween-80, higher = longer survival
[4] = endpoint: median tumor weight (est.), dose: 50.0 mg/kg/injection, schedule: Q01DX009 (ip), vehicle: saline with Tween-80, higher = larger tumour
[5] = endpoint: median tumor weight (est.), dose: 100.0 mg/kg/injection, schedule: Q01DX009 (ip), vehicle: saline with Tween-80, higher = larger tumour
[6] = endpoint: median tumor weight (est.), dose: 200.0 mg/kg/injection, schedule: Q01DX009 (ip), vehicle: saline with Tween-80, higher = larger tumour

O=C(O)CCCc1ccc(N(CCCl)CCCl)cc1
T/C (endpoint: median survival time, dose: 1.5 mg/kg/injection, schedule: Q02DX030 (ip), vehicle: saline with Tween-80, higher = longer survival): 158 % of control | T/C (endpoint: median survival time, dose: 3.0 mg/kg/injection, schedule: Q02DX030 (ip), vehicle: saline with Tween-80, higher = longer survival): 194 % of control | T/C (endpoint: median survival time, dose: 3.0 mg/kg/injection, schedule: Q04DX006 (ip), vehicle: saline with Tween-80, higher = longer survival): 100 % of control | T/C (endpoint: median survival time, dose: 6.0 mg/kg/injection, schedule: Q04DX006 (ip), vehicle: saline with Tween-80, higher = longer survival): 117 % of control | T/C (endpoint: median survival time, dose: 12.0 mg/kg/injection, schedule: Q04DX006 (ip), vehicle: saline with Tween-80, higher = longer survival): 124 % of control

CC(C)CC(NC(=O)C(N)C(C)C)C(=O)NC(CCCCN)C(=O)NC(C(=O)O)C1CC(Cl)=NO1 (stereo not drawn)
T/C (endpoint: median survival time, dose: 1.6 mg/kg/injection, schedule: Q01DX010 (ip), vehicle: saline, higher = longer survival): 103 % of control and 106 % of control | T/C (endpoint: median survival time, dose: 25.6 mg/kg/injection, schedule: Q01DX010 (ip), vehicle: saline, higher = longer survival): 173 % of control | T/C (endpoint: median survival time, dose: 51.2 mg/kg/injection, schedule: Q01DX010 (ip), vehicle: saline, higher = longer survival): 166 % of control

CC[C@]1(O)C[C@H]2CN(CCc3c([nH]c4ccccc34)[C@@](C(=O)OC)(c3cc4c(cc3OC)N(C=O)[C@H]3[C@@](O)(C(=O)OC)[C@H](OC(C)=O)[C@]5(CC)C=CCN6CC[C@]43[C@@H]65)C2)C1
T/C (endpoint: median survival time, dose: 0.08 mg/kg/injection, schedule: Q02DX030 (ip), vehicle: saline, higher = longer survival): 110 % of control | T/C (endpoint: median survival time, dose: 0.08 mg/kg/injection, schedule: Q04DX006 (ip), vehicle: saline, higher = longer survival): 112 % of control | T/C (endpoint: median survival time, dose: 0.15 mg/kg/injection, schedule: Q04DX006 (ip), vehicle: saline, higher = longer survival): 97 % of control | T/C (endpoint: median survival time, dose: 0.3 mg/kg/injection, schedule: Q04DX006 (ip), vehicle: saline, higher = longer survival): 103 % of control | T/C (endpoint: median survival time, dose: 0.6 mg/kg/injection, schedule: Q04DX006 (ip), vehicle: saline, higher = longer survival): 109 % of control

CCOC(=O)c1ccc(N2C(=O)OC(C)(C)C2=O)cc1
T/C [1]: 108 % of control | T/C [2]: 115 % of control | T/C [3]: 95 % of control | T/C [4]: 99 % of control | T/C [5]: 97 % of control | T/C [6]: 80 % of control

COc1ccc(/C=N/NC(=O)C(=O)Nc2ccc(Cl)c([N+](=O)[O-])c2)cc1OC
T/C [1]: 97 % of control | T/C [2]: 88 % of control | T/C [3]: 97 % of control | T/C [4]: 96 % of control | T/C [5]: 90 % of control | T/C [6]: 86 % of control

CSC1SCC2C(=O)N(C)C(C(C)C)C(=O)OCC(NC(=O)c3cnc4ccccc4n3)C(=O)NC(C)C(=O)N(C)C1C(=O)N(C)C(C(C)C)C(=O)OCC(NC(=O)c1cnc3ccccc3n1)C(=O)NC(C)C(=O)N2C (stereo not drawn)
T/C (endpoint: median survival time, dose: 0.06 mg/kg/injection, schedule: Q04DX003 (ip), vehicle: saline with Tween-80, higher = longer survival): 96 % of control | T/C (endpoint: median survival time, dose: 0.12 mg/kg/injection, schedule: Q04DX003 (ip), vehicle: saline with Tween-80, higher = longer survival): 91 % of control

C=C1C(O)C2OC3(CCC(/C=C/C(C)C4CC5(C)SC5C5(OC(CC(C)(O)C(=O)O)CCC5O)O4)O3)CCC2OC1C(O)CC(C)C1OC2(CCCCO2)CCC1C (stereo not drawn)
T/C (endpoint: median survival time, dose: 1.25 micrograms/kg/injection, schedule: Q01DX009 (ip), vehicle: saline + alcohol, higher = longer survival): 101 % of control | T/C (endpoint: median survival time, dose: 2.5 micrograms/kg/injection, schedule: Q01DX009 (ip), vehicle: saline + alcohol, higher = longer survival): 96 % of control | T/C (endpoint: median survival time, dose: 5.0 micrograms/kg/injection, schedule: Q01DX009 (ip), vehicle: saline + alcohol, higher = longer survival): 108 % of control | T/C (endpoint: median survival time, dose: 10.0 micrograms/kg/injection, schedule: Q01DX009 (ip), vehicle: saline + alcohol, higher = longer survival): 96 % of control | T/C (endpoint: median tumor weight (est.), dose: 1.25 micrograms/kg/injection, schedule: Q01DX009 (ip), vehicle: saline + alcohol, higher = larger tumour): 107 % of control | T/C (endpoint: median tumor weight (est.), dose: 2.5 micrograms/kg/injection, schedule: Q01DX009 (ip), vehicle: saline + alcohol, higher = larger tumour): 77 % of control | T/C (endpoint: median tumor weight (est.), dose: 5.0 micrograms/kg/injection, schedule: Q01DX009 (ip), vehicle: saline + alcohol, higher = larger tumour): 92 % of control

CC1(C)OC(C)(C)c2c1nnc(-c1cccc([N+](=O)[O-])c1)[n+]2[O-]
T/C [1]: 110 % of control | T/C [2]: 113 % of control | T/C [3]: 113 % of control | T/C [4]: 91 % of control | T/C [5]: 119 % of control | T/C [6]: 97 % of control

O=C1/C(=C/c2cccc([N+](=O)[O-])c2)SC(=S)N1C1CC1
T/C [1]: 94 % of control | T/C [2]: 94 % of control | T/C [3]: 89 % of control | T/C [4]: 100 % of control | T/C [5]: 97 % of control

NCCCNCCSP(=O)(O)O
T/C (endpoint: median survival time, dose: 25.0 mg/kg/injection, schedule: Q02DX011 (ip), vehicle: saline, higher = longer survival): 116 % of control | T/C (endpoint: median survival time, dose: 50.0 mg/kg/injection, schedule: Q02DX011 (ip), vehicle: saline, higher = longer survival): 106 % of control | T/C (endpoint: median survival time, dose: 100.0 mg/kg/injection, schedule: Q02DX011 (ip), vehicle: saline, higher = longer survival): 96 % of control
